Experimental data from BigSolDB 2.1.

C[C@@]12C[C@H]3OC(=O)[C@@H]1CO[C@]14O[C@@]5([C@H]2C1=O)[C@@]3(C)OC(=O)[C@@]5(O)CC[C@H]1[C@H]4C[C@@H](O)[C@@]2(O)CC=CC(=O)[C@]12C
solubility (mole fraction)
Settings | in acetone | in chloroform | in ethanol | in ethyl acetate | in methanol | in water
283.2 K | 0.0173 | 0.0046 | 0.0039 | 0.003 | 0.0081 | 0.0012
293.2 K | 0.022 | 0.0047 | 0.0047 | 0.0032 | 0.0092 | 0.0021
298.2 K | 0.0238 | 0.0049 | 0.0058 | 0.0036 | 0.0101 | 0.0027
303.2 K | 0.0265 | 0.0053 | 0.0071 | 0.0042 | 0.0109 | 0.0028
308.2 K | 0.0286 | 0.0058 | 0.0089 | 0.0052 | 0.0122 | 0.0029
313.2 K | 0.0309 | 0.006 | 0.0107 | 0.0059 | 0.0159 | 0.003
